Data as given in patent US10624875B2, “Methods and compositions for treating schizophrenia” (The Johns Hopkins University, priority 2012, dated 2020).
Where “and” joins values, the source holds several entries; their conditions need not be identical. Identical values can stand only once.

Key:
[1] = tested on: MAM-treated rats; conditions: administered systemically and directly infused into the ventral HPC; cited from earlier work
[2] = tested on: HPC neurons; conditions: saline-treated and MAM-treated animals; cited from earlier work
[3] = tested on: MAM-treated rats; conditions: cited from earlier work
[4] = tested on: aged-impaired (AI) rats; test: eight-arm Radial Arm Maze (RAM) task with one-hour delay, spatial memory retention; assay type: in vivo, rat; conditions: drug on its own (levetiracetam i.p., valproate subcutaneous)
Description: The effects of levetiracetam on the spatial memory retention of aged-impaired (AI) rats were assessed in a Radial Arm Maze (RAM) behavioral task using vehicle control and five different dosage levels of levetiracetam (1.25 mg/kg/day, 2.5 mg/kg/day, 5 mg/kg/day, 10 mg/kg/day and 20 mg/kg/day). RAM behavioral tasks were preformed on ten AI rats. All six treatment conditions were tested on all ten rats, as described above for the MWM test. The RAM apparatus used consisted of eight equidistantly-spaced arms. An elevated maze arm (7 cm width×75 cm length) projected from each facet of an octagonal center platform (30 cm diameter, 51.5 cm height). Clear side walls on the arms were 10 cm high and were angled at 65° to form a trough. A food well (4 cm diameter, 2 cm deep) was located at the distal end of each arm. Froot Loops™ (Kellogg Company) were used as rewards. Blocks constructed of Plexiglas™ (30 cm height×12 cm width) could be positioned to prevent entry to any arm. Numerous extra maze cues surrounding the apparatus were also provided. The AI rats were initially subjected to a pre-training test (Chappell et al. Neuropharmacology 37: 481-487, 1998). The pre-training test consisted of a habituation phase (4 days), a training phase on the standard win-shift task (18 days) and another training phase (14 days) in which a brief delay was imposed between presentation of a subset of arms designated by the experimenter (e.g., 5 arms available and 3 arms blocked) and completion of the eight-arm win-shift task (i.e., with all eight arms available). In the habituation phase, rats were familiarized to the maze for an 8-minute session on four consecutive days. In each of these sessions food rewards were scattered on the RAM, initially on the center platform and arms and then progressively confined to the arms. After this habituation phase, a standard training protocol was used, in which a food pellet was located at the end of each arm. Rats received one trial each day for 18 days. Each daily trial terminated when all eight food pellets had been obtained or when either 16 choices were made or 15 minutes had elapsed. After completion of this training phase, a second training phase was carried out in which the memory demand was increased by imposing a brief delay during the trial. At the beginning of each trial, three arms of the eight-arm maze were blocked. Rats were allowed to obtain food on the five arms to which access was permitted during this initial ‘information phase’ of the trial. Rats were then removed from the maze for 60 seconds, during which time the barriers on the maze were removed, thus allowing access to all eight arms. Rats were then placed back onto the center platform and allowed to obtain the remaining food rewards during this ‘retention test’ phase of the trial. The identity and configuration of the blocked arms varied across trials. The number of “errors” the AI rats made during the retention test phase was tracked. An error occurred in the trial if the rats entered an arm from which food had already been retrieved in the pre-delay component of the trial, or if it re-visited an arm in the post-delay session that had already been visited. After completion of the pre-training test, rats were subjected to trials with more extended delay intervals, i.e., a one-hour delay, between the information phase (presentation with some blocked arms) and the retention test (presentation of all arms). […]

C#Cc1ccc2c(c1)C(c1ccccc1F)=N[C@H](C)c1c(C(=O)OCC)ncn1-2 [SH-053-2′F—R—CH3]
number of spontaneously active DA neurons in the ventral tegmental area (VTA) [1]: reduces the number of spontaneously active DA neurons
cortical-evoked responses of HPC neurons [2]: diminished cortical-evoked responses
increased locomotor response to amphetamine [3]: is reduced

CCCC(CCC)C(=O)O [Valproate]
dose effective in reducing the number of errors [4]: 100 mg/kg
dose not effective in reducing the number of errors [4]: 25 mg/kg and 50 mg/kg
